In ChEMBL document CHEMBL1137813, “An extract of Tagetes lucida and its phenolic constituents as antioxidants” (J Nat Prod, 2002):

Each compound was assayed on Radical scavenging activity (assay: Antioxidant activity assessed as DPPH radical scavenging activity after 20 mins by UV-visible spectrophotometry).
Assay type: functional

Row | SMILES | EC50 [µg]
1 | O=c1c(O)c(-c2ccc(O)cc2)oc2cc(O[C@@H]3O[C@H](CO)[C@@H](O)[C@H](O)[C@H]3O)c(O)c(O)c12 | 6.9
2 | O=c1c(O)c(-c2ccc(O)c(O)c2)oc2cc(O[C@@H]3O[C@H](CO)[C@@H](O)[C@H](O)[C@H]3O)c(O)c(O)c12 | 4.6
3 | Cc1c(C)c2c(c(C)c1O)CC[C@@](C)(CCC[C@H](C)CCC[C@H](C)CCCC(C)C)O2 [ALPHA-TOCOPHEROL] | 10.1
4 | O=C(O)/C=C/c1ccc(O)c(O)c1 [CAFFEIC ACID] | 3
5 | O=C(O)c1cc(O)c(O)c(O)c1 [GALLIC ACID] | 1.2
6 | O=c1c(O)c(-c2ccc(O)cc2)oc2cc(O)cc(O)c12 [KAEMPFEROL] | 4.4
7 | O=c1c(O)c(-c2ccc(O)c(O)c2)oc2cc(O)cc(O)c12 [QUERCETIN] | 2.3
8 | C[C@@H]1O[C@@H](OC[C@H]2O[C@@H](Oc3c(-c4ccc(O)c(O)c4)oc4cc(O)cc(O)c4c3=O)[C@H](O)[C@@H](O)[C@@H]2O)[C@H](O)[C@H](O)[C@H]1O [RUTIN] | 4.8
